Measurements from patent US10517889B2, “Modulators of SMAD7 expression” (Ionis Pharmaceuticals, Inc., priority 2017, dated 2019).
Strand notation (5' to 3'): a small letter for the sugar, then the base; units joined by * are phosphorothioate-linked, units joined directly phosphodiester-linked; [ ] holds rarer units or linkages, { } end groups; capitals alone tell only the bases. k = constrained ethyl (cEt); [5mC] = 5-methylcytosine; d = 2'-deoxy (DNA)

system: human SMAD7 mRNA; assay: Antisense inhibition of human SMAD7 mRNA expression in Hep3B cells by 3-10-3 cEt gapmers, 10,000 nM, electroporation (Example 2); format: cell-based; settings: Hep3B cells, electroporation with 10,000 nM antisense oligonucleotide, approximately 24 hours, RTS5062, percent inhibition of SMAD7 mRNA relative to untreated control cells
Procedure, shortened: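 Hep3B, 20,000 cells/well; electroporation, 10,000 nM ASO; ~24 h. Readout: SMAD7 mRNA by qRT-PCR (RTS5062), RIBOGREEN-normalised; % inhibition vs untreated.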

In order of rising “% Inhibition” value:
1. 799647 (antisense kA*k[5mC]*kA*dG*dA*dA*dA*d[5mC]*dT*d[5mC]*d[5mC]*dA*dG*kA*kT*kG) [compound 799647]  0%
2. 799648 (antisense kA*kT*kG*dA*dA*dA*dG*d[5mC]*d[5mC]*d[5mC]*d[5mC]*d[5mC]*dA*kG*kA*k[5mC]) [compound 799648]  9%
3. 799646 (antisense k[5mC]*kA*kG*dA*dA*dA*d[5mC]*dT*d[5mC]*d[5mC]*dA*dG*dA*kT*kG*kG) [compound 799646]  18%
4. 799643 (kG*kT*kG*dA*dT*d[5mC]*d[5mC]*d[5mC]*d[5mC]*dG*dG*dA*dA*kA*kG*k[5mC]; antisense) [compound 799643]  26%
5. 799644 (kT*kT*k[5mC]*d[5mC]*dA*dA*d[5mC]*dA*d[5mC]*dA*dT*dG*d[5mC]*kT*k[5mC]*kT; antisense) [compound 799644]  31%
6. 799645 (k[5mC]*kA*kA*dA*dG*dA*dT*dG*dA*dT*dA*dG*d[5mC]*kT*kT*k[5mC]; antisense) [compound 799645]  45%
7. 799650 (antisense k[5mC]*kA*kG*d[5mC]*dA*dG*dA*d[5mC]*dA*dG*dG*d[5mC]*dA*kA*kA*kA) [compound 799650]  46%
8. 799642 (kG*k[5mC]*kA*dA*dA*dT*d[5mC]*d[5mC]*dT*dT*dT*d[5mC]*d[5mC]*kA*kT*k[5mC]; antisense) [compound 799642]  53%
9. 799649 (antisense kA*kA*kA*dT*dG*dA*dA*dA*dG*d[5mC]*d[5mC]*d[5mC]*d[5mC]*k[5mC]*kA*kG) [compound 799649]  53%
10. 799651 (antisense kA*kG*kG*dA*d[5mC]*dA*dG*d[5mC]*dA*dG*dA*d[5mC]*dA*kG*kG*k[5mC]) [compound 799651]  55%

same assay, conditions: Hep3B cells, electroporation, 10,000 nM antisense oligonucleotide, approximately 24 hours, RTS5062, relative to untreated control cells

In order of falling “% inhibition of SMAD7 mRNA expression” value:
1. 799657 (antisense kT*kA*k[5mC]*dA*dA*dG*dT*dG*dG*dT*dT*dG*d[5mC]*kT*kG*kG) [compound 799657]  62%
2. 799656 (antisense k[5mC]*kT*kA*dA*d[5mC]*dT*dG*dG*dG*d[5mC]*dA*dG*dG*kT*k[5mC]*k[5mC]) [compound 799656]  60%
3. 799638 (kA*kG*kT*d[5mC]*dA*dG*dG*d[5mC]*dA*d[5mC]*dA*dG*dA*k[5mC]*kT*kG; antisense) [compound 799638]  53%
4. 799653 (antisense kA*k[5mC]*k[5mC]*d[5mC]*dA*d[5mC]*dT*d[5mC]*dA*dA*dA*d[5mC]*d[5mC]*kA*kG*kG) [compound 799653]  51%
5. 799637 (kG*k[5mC]*kA*d[5mC]*dA*dG*dA*d[5mC]*dT*dG*d[5mC]*d[5mC]*dA*kA*kA*kT; antisense) [compound 799637]  48%
6. 799655 (antisense kT*kG*k[5mC]*dA*dG*d[5mC]*dT*dG*dA*dA*dT*dA*dA*k[5mC]*k[5mC]*kT) [compound 799655]  47%
7. 799640 (k[5mC]*kA*kA*dG*dG*dA*d[5mC]*d[5mC]*dT*dG*dT*dT*d[5mC]*kT*kG*kG; antisense) [compound 799640]  40%
8. 799639 (k[5mC]*k[5mC]*kA*dG*dA*dG*dA*dG*dT*d[5mC]*dA*dG*dG*k[5mC]*kA*k[5mC]; antisense) [compound 799639]  34%
9. 799641 (k[5mC]*kA*kT*d[5mC]*dA*dG*dA*d[5mC]*d[5mC]*dT*d[5mC]*dT*d[5mC]*k[5mC]*k[5mC]*kA; antisense) [compound 799641]  33%
10. 799654 (antisense kG*k[5mC]*kT*dG*dA*dA*dT*dA*dA*d[5mC]*d[5mC]*dT*dA*k[5mC]*kA*kA) [compound 799654]  22%
11. 799652 (antisense kA*k[5mC]*kT*d[5mC]*dA*dA*dA*d[5mC]*d[5mC]*dA*dG*dG*dA*k[5mC]*kA*kG) [compound 799652]  0%
